Source: paper PMC5478822, “In Vitro Anticancer Effect of Gedunin on Human Teratocarcinomal (NTERA-2) Cancer Stem-Like Cells” (BioMed Research International, 2017)
≈ marks a conversion by molar mass, not a printed value. Like-named read-outs stand apart in the source and are kept apart here.

What was measured:
[1] = tested on: NTERA-2 cells; assay: Sulforhodamine B (SRB) antiproliferative assay; type: cell-based; details: Homo sapiens
Procedure: The NTERA-2 cells were cultured using Dulbecco's Modified Eagle's Medium (DMEM), supplemented with 10% fetal bovine serum (FBS), 50 IU/mL penicillin, and 50 μg/mL streptomycin. Cells were incubated at 37°C with 5% CO2 and 95% humidity.
Prior to the SRB assay, NTERA-2 cells were grown in a 75 cm[…] flasks. Upon confluency, cells were trypsinized and seeded into 96-well plates (5 × 10^3 cells/well). After 24 h incubation, cells were treated with various concentrations (3.125, 6.25, 12.5, 25, and 50 μg/mL) of gedunin and retinoic acid (positive control) dissolved in 0.1% dimethyl sulfoxide (DMSO) and incubated for 24, 48, and 72 h. Negative control for the experiment was 0.1% DMSO in DMEM medium. Then the cells were fixed with 20 μL of 50% (trichloroacetic acid) TCA and incubated for further 1 h at 4°C. After incubation, cells were washed five times with tap water and stained with 50 μL of 0.4% (w/v) SRB solution. After 20 min of incubation, SRB solution was poured off and unbound dye was removed by washing five times with 1% acetic acid. Bound SRB dye was then solubilized by adding 100 μL of Tris base solution. The plates were shaken for 1 h and absorbance was read at 540 nm OD.

[2] = tested on: HSF1; assay: RT-qPCR gene expression, HSF1; type: cell-based, human; details: NTERA-2 cells, 24 h incubation
Procedure: (§1) NTERA-2 (2.5 × 10^5 cells/mL) cells were cultured in cell culture flasks and treated with gedunin dissolved in 0.1% DMSO (5 and 10 μg/mL) for 24 h. Negative control for the experiment was 0.1% DMSO in DMEM medium. Following incubation, total RNA was extracted with TRIzol® reagent according to the manufacturer's instructions. For reverse transcription, extracted RNA (2 μg) was mixed with 50 ng of random primers and the total volume was made up to 13.5 μL with ultrapure water. Resulting mixture was incubated at 70°C for 5 min and, after incubation, it was kept on ice for 2 min. Complementary DNA (cDNA) was then synthesized by adding 2 μL from the transcription mixture, 5 μL of 5x MMLV-buffer, 5 μL of 10 mM deoxynucleotide mixture, 25 units of RNasin, and 200 units of MMLV-reverse transcriptase in a reaction mixture of 25 μL adjusted by adding ultrapure water and incubated at 37°C for 60 min. Real-time PCR was carried out in Stratagene Mx3000P using a master mix containing SYBR green (MESA Green qPCR Master Mix Plus for SYBR Assay). Primers used for real-time PCR are given in Table 1 and glyceraldehyde-3-phosphate dehydrogenase (GAPDH) was used as the internal housekeeping gene. […] Results of real-time PCR were analysed using the formula 2^−ΔΔCt.

[3] = tested on: caspase 3/7 in NTERA-2 cells; assay: Caspase 3/7 assay; type: cell-based, human; details: 24 h
Procedure: NTERA-2 cells (2.5 × 10^4 cells/mL) were cultured in 96-well cell culture plates and incubated for 24 h. After incubation, cells were treated with gedunin dissolved in 0.1% DMSO (2.5, 5, and 10 μg/mL) and incubated for further 24 h. Negative control for the experiment was 0.1% DMSO in DMEM medium. Caspase 3/7 reagent (100 μL) was then added to each well and incubated for 1 h in dark at 37°C. Luminescence of each well was measured by a plate reader.

[4] = tested on: Cdc37; assay: RT-qPCR gene expression, Cdc37; type: cell-based, human; details: NTERA-2 cells, 5 and 10 μg/mL, 24 h
Procedure: as §1

[5] = tested on: peripheral blood mononuclear cells; assay: WST-1 cell viability assay; type: cell-based, human; details: for IC50: Homo sapiens, PBMC, PBMCs, WST-1 assay; for Cytotoxic effect on normal peripheral blood mononuclear cells: WST-1 cell viability assay
Procedure: Cytotoxic effects of gedunin and positive control (retinoic acid) on normal human cells were evaluated by using human peripheral blood mononuclear cells. Collected blood was diluted with Hank's Buffered Salt Solution (HBSS) and layered onto Histopaque 1077. Blood was then centrifuged at 1000 rpm for 10 min. After centrifugation, opaque interface which contains mononuclear cells was seperated and washed with phosphate buffered saline (PBS). Cells were then counted and cultured (2 × 10^5 cells/mL) in RPMI medium supplemented with 10% fetal bovine serum (FBS), 50 IU/mL penicillin, and 50 μg/mL streptomycin in 24-well plates. Cells were then treated with different concentrations of gedunin and retinoic acid dissolved in 0.1% DMSO (3.125, 6.25, 12.5, 25, and 50 μg/mL) and incubated for 24, 48, and 72 h. Negative control for the experiment was 0.1% DMSO in RPMI medium. WST-1 cell proliferation assay was then carried out according to manufacturer's instructions to determine the cytotoxic effects.

[6] = tested on: NTERA-2 cells; assay: Acridine orange/ethidium bromide (AO/EB) staining; type: cell-based, human; details: NTERA-2 cells, 2.5, 5 and 10 μg/mL, 24 h
Procedure: NTERA-2 cells (2.5 × 10^4 cells/mL) were cultured on cell culture treated coverslips and incubated for 24 h. Subsequently, cells were exposed to different concentrations of gedunin dissolved in 0.1% DMSO (2.5, 5, and 10 μg/mL) and incubated for 24 h. Negative control for the experiment was 0.1% DMSO in DMEM medium. After incubation, cells were fixed using 4% formaldehyde in the dark for 10 min. Cells were then washed with PBS and stained with ethidium bromide (100 μg/mL) and acridine orange (100 μg/mL) solutions (1 : 1 v/v). Excess dye was then washed off with PBS and cell morphology was observed using a fluorescence microscope (BX51 TRF, Olympus Corporation, Tokyo, Japan).

[7] = tested on: p53; assay: RT-qPCR gene expression, p53; type: cell-based, human; details: NTERA-2 cells, 5 and 10 μg/mL, 24 h
Procedure: as §1

[8] = tested on: AKT; assay: RT-qPCR gene expression, AKT; type: cell-based, human; details: NTERA-2 cells, 24 h incubation
Procedure: as §1

[9] = tested on: Bax; assay: RT-qPCR gene expression, Bax; type: cell-based, human; details: NTERA-2 cells, both doses tested, 24 h
Procedure: as §1

[10] = tested on: NTERA-2 cells; assay: TUNEL assay; type: cell-based, human; details: NTERA-2 cells, 2.5, 5 and 10 μg/mL, 24 h
Procedure: Terminal deoxynucleotidyl transferase-mediated dUTP-biotin nick-end labeling (TUNEL) staining was carried out to confirm in situ chromatin fragmentation. Cells cultured on coverslips (2.5 × 10^4 cells/mL) were treated with different concentrations of gedunin dissolved in 0.1% DMSO (2.5, 5, and 10 μg/mL) and incubated for 24 h. Negative control for the experiment was 0.1% DMSO in DMEM medium. TUNEL staining was carried out according to manufacturer's instructions. Briefly, cells were fixed with 4% formaldehyde and permeabilized with 0.2% Triton X-100. Equilibration buffer (100 μL) and TdT reaction mix to label DNA were added and incubated for further 60 min in a humidified chamber. Then coverslips were immersed in 2x SSC buffer for 15 min followed by immersing in 0.3% H2O2 for 3 min. Finally, labeled fragments were incubated with streptavidin horseradish peroxidase and visualized after diaminobenzidine (DAB) color development where dark brown spots confirmed apoptosis.

[11] = tested on: survivin; assay: RT-qPCR gene expression, survivin; type: cell-based, human; details: NTERA-2 cells, both doses tested, 24 h
Procedure: as §1

[12] = tested on: NTERA-2 cells; assay: DNA fragmentation analysis; type: cell-based, human; details: 48 and 72 h, gedunin 5, 10 and 15 μg/mL
Procedure: DNA fragmentation analysis was carried out according to previously described methods. NTERA-2 cells (2.5 × 10^4 cells/mL) were grown in cell culture flasks and incubated for 24 h. After incubation, flasks were treated with gedunin dissolved in 0.1% DMSO (5, 10, and 15 μg/mL) and further incubated for 48 and 72 h. Negative control for the experiment was 0.1% DMSO in DMEM medium. At the end of the incubation period, cells were trypsinized and cell pellets were obtained. Cell pellets were then incubated for 60 min at 50°C in a 100 μL of lysis buffer (100 mM Tris–HCl, pH 8, 100 mM NaCl, and 10 mM EDTA). Proteinase K (10 μL, 20 mg/mL) was then added to cell lysates and incubated for 30 min at 50°C. After adding 3 μL of 10 mg/mL RNase, the mixture was incubated for 2 h at 50°C. DNA was extracted in phenol chloroform-isoamyl alcohol and 1 μg of isolated DNA from each sample was subjected to 2.0% of agarose gel electrophoresis and visualized under UV using a gel-doc system (Quantum-ST4 1100/20 M).

[13] = tested on: HSP90; assay: RT-qPCR gene expression, HSP90; type: cell-based, human; details: NTERA-2 cells, 5 and 10 μg/mL, 24 h
Procedure: as §1

[14] = tested on: NTERA-2 cells; assay: Nitrobluetetrazolium reactive oxygen species (ROS) assay; type: cell-based, human; details: 24 h after incubation, 2.5, 5 and 10 μg/mL
Procedure: ROS measurement in gedunin treated NTERA-2 cells was carried out using previously described methods. Cells (2 × 10^3) were cultured in 96-well cell culture plates and incubated for 24 h. After incubation cells were treated with gedunin (2.5, 5, and 10 μg/mL) and incubated for further 24 h. Cells were then incubated with nitrobluetetrazolium (1 mg/mL) for 1 h at 37°C. After the incubation 100 μL of DMSO was added to solubilize blue formazan, plates were shaken for 10 min at room temperature, and the absorbance was read at 620 nm.

[15] = tested on: ErbB2; assay: RT-qPCR gene expression, ErbB2; type: cell-based, human; details: NTERA-2 cells, 24 h incubation
Procedure: as §1

[16] = NTERA2, 24 h incubation, read-out: IC50 in NTERA-2 cells, 24 h
[17] = NTERA2, 48 h incubation, read-out: IC50 in NTERA-2 cells, 48 h
[18] = NTERA2, 72 h incubation, read-out: IC50 in NTERA-2 cells, 72 h
[19] = 24 h incubation, read-out: IC50 in peripheral blood mononuclear cells, 24 h
[20] = 48 h incubation, read-out: IC50 in peripheral blood mononuclear cells, 48 h
[21] = 72 h incubation, read-out: IC50 in peripheral blood mononuclear cells, 72 h

With `CC(=O)O[C@@H]1C[C@H]2C(C)(C)C(=O)C=C[C@]2(C)[C@H]2CC[C@@]3(C)[C@H](c4ccoc4)OC(=O)[C@H]4O[C@]43[C@@]21C` [Gedunin] the IC50 [1, 16] was 14.6 mg/L (≈ 30.2 µM), the IC50 [1, 17] was 8.49 mg/L (≈ 17.6 µM) and the IC50 [1, 18] was 6.55 mg/L (≈ 13.6 µM). For the same molecule, the “Expression of HSF1 (real-time PCR)” value [2] was “Significant downregulation”, the “Fold change in caspase 3/7 activity” value ([3]; 2.5 μg/mL) was 1.08 fold and the “Fold change in caspase 3/7 activity” value ([3]; 5 μg/mL) was 1.2 fold. For the same molecule, the “Fold change in caspase 3/7 activity” value ([3]; 10 μg/mL) was 1.41 fold, the “Expression of Cdc37 (real-time PCR)” value [4] was “downregulation” and the IC50 [5, 19] was over 100 mg/L. The IC50 [5, 20] was over 100 mg/L, the IC50 [5, 21] was over 100 mg/L and the “Cytotoxic effect on normal peripheral blood mononuclear cells” value [5] was “minimal effect on PBMCs”. For the same molecule, the “Cytotoxic effect on normal peripheral blood mononuclear cells” value ([5]; listed as gedunin) was “not significant”, the “Morphological changes after AO/EB staining” value [6] was “morphological changes of apoptosis” and the “Expression of p53 (real-time PCR)” value [7] was “upregulation of p53”. The “Expression of AKT (real-time PCR)” value [8] was “Significant downregulation”, the “Expression of Bax (real-time PCR)” value [9] was “Upregulation of Bax” and the TUNEL-positive nuclei [10] was “increase in the number of TUNEL-positive nuclei”. The “Expression of survivin (real-time PCR)” value [11] was “downregulation”, the “DNA fragmentation (laddering pattern)” value [12] was “smeared laddering pattern of DNA was observed” and the “Expression of HSP90 (real-time PCR)” value [13] was “downregulation”. The ROS production [14] was “increase in ROS production” and the “Expression of ErbB2 (real-time PCR)” value [15] was “Significant downregulation”.

In the case of `CC1=C(/C=C/C(C)=C/C=C/C(C)=C/C(=O)O)C(C)(C)CCC1` [Retinoic acid, retinoic acid, reference compound], the IC50 [1, 16] is reported as 14.4 mg/L (≈ 47.8 µM), the IC50 [1, 17] is reported as 9.17 mg/L (≈ 30.5 µM) and the IC50 [1, 18] is reported as 6.87 mg/L (≈ 22.9 µM). The IC50 [5, 19] was over 100 mg/L, the IC50 [5, 20] was over 100 mg/L and the IC50 [5, 21] was over 100 mg/L. For the same molecule, the “DNA fragmentation (laddering pattern)” value [12] was “smeared laddering pattern of DNA was observed”.

`CC1=CC(=O)C(C(C)C)=CC1=O` [thymoquinone] was tested, and the “DNA fragmentation (laddering pattern)” value [12] was “smeared laddering pattern of DNA was observed”.
